In US20230058171A1, “NEW ORAL PHARMACEUTICAL COMPOSITION FOR CANCER THERAPY” (BOEHRINGER INGELHEIM INTERNATIONAL GMBH, priority 2021, published 2023):
Where two headings read alike, the source gives them in different places.

Test: Preliminary pharmacokinetics in trial 1403-0001 (Arm A D1 q3w, Arm B D1 D8 q4w)
Assay type: in vivo, human
Settings: for Vd/F / half-life / Tmax / AUC(0-inf) / Cmax: human, plasma, oral
Excerpt: Preliminary PK data were available from the first 45 treated patients in study 1403-0001. The exploratory PK analysis is based on planned blood sampling time-points and the results are subject to change because not all samples from these patients have been analyzed yet. Therefore, AUCs may be incomplete. In addition, information on the absorption, distribution, and elimination of the MDM2 antagonist of formula I are descriptive given the limited exploratory PK results available up to this point in time.
Consequently the preliminary PK results support the dose selection of 45 mg (and alternatively even of 30 mg) combined with the once in three weeks (D1 q3w) dose regimen. The tmax of the MDM2 antagonist of formula I is generally between 4 and 6 hours after tablet intake.

Q: Which results are given for `Cc1c(C(=O)O)ccc2c3n(nc12)[C@@H]1[C@H](C3)N(CC2CC2)[C@@]2(C(=O)Nc3cc(Cl)ccc32)[C@H]1c1cccc(Cl)c1F` [MDM2-antagonist of formula I, (2′S,3′S,3a'S,10a'S)-6-chloro-3′-(3-chloro-2-fluorophenyl)-1′-(cyclopropylmethyl)-6′-methyl-2-oxo-1,2,3′,3a′,10′,10a′-hexahydro-1′H-spiro[indole-3,2′-pyrrolo[2′,3′:4,5]pyrrolo[1,2-b]indazole]-7′-carboxylic acid]?
A: Vd/F (10 mg, Day 1, D1 D8 q4w (Arm B), gMean, N=3, read-out: Vz/F): 24.5 L; half-life (10 mg, Day 1, D1 D8 q4w (Arm B), gMean, N=3, read-out: t1/2 (converted)): 52.4 h; Tmax (10 mg, Day 1, D1 D8 q4w (Arm B), median, N=3, read-out: tmax): 6 h; AUC(0-inf) (10 mg, Day 8, D1 D8 q4w (Arm B), gMean, N=3, read-out: AUC0-∞): 48.4 µM·h; Cmax (10 mg, Day 8, D1 D8 q4w (Arm B), gMean, N=3, read-out: Cmax): 714 nM; Vd/F (10 mg, Day 8, D1 D8 q4w (Arm B), gMean, N=3, read-out: Vz/F): 23.1 L; half-life (10 mg, Day 8, D1 D8 q4w (Arm B), gMean, N=3, read-out: t1/2 (converted)): 45.9 h; Tmax (10 mg, Day 8, D1 D8 q4w (Arm B), median, N=3, read-out: tmax): 5 h; AUC(0-inf) (15 mg, Day 1, D1 D8 q4w (Arm B), gMean, N=3, read-out: AUC0-∞): 37.8 µM·h; Cmax (15 mg, Day 1, D1 D8 q4w (Arm B), gMean, N=3, read-out: Cmax): 831 nM; Vd/F (15 mg, Day 1, D1 D8 q4w (Arm B), gMean, N=3, read-out: Vz/F): 32.3 L; half-life (15 mg, Day 1, D1 D8 q4w (Arm B), gMean, N=3, read-out: t1/2 (converted)): 33.4 h; Tmax (15 mg, Day 1, D1 D8 q4w (Arm B), median, N=3, read-out: tmax): 5 h; AUC(0-inf) (15 mg, Day 8, D1 D8 q4w (Arm B), gMean, N=2, read-out: AUC0-∞): 25.8 µM·h; Vd/F (15 mg, Day 8, D1 D8 q4w (Arm B), gMean, N=2, read-out: Vz/F): 37.3 L; half-life (15 mg, Day 8, D1 D8 q4w (Arm B), gMean, N=2, read-out: t1/2 (converted)): 26.3 h; Cmax (15 mg, Day 8, D1 D8 q4w (Arm B), gMean, N=3, read-out: Cmax): 776 nM; Tmax (15 mg, Day 8, D1 D8 q4w (Arm B), median, N=3, read-out: tmax): 4 h; Cmax (20 mg, Arm A D1 q3w, 20 mg, N=2, read-out: Cmax (gMean)): 1160 nM; Tmax (20 mg, Arm A D1 q3w, 20 mg, N=2, read-out: tmax (median)): 5.5 h; AUC(0-inf) (20 mg, Day 1, D1 D8 q4w (Arm B), gMean, N=3, read-out: AUC0-∞): 88.9 µM·h; Cmax (20 mg, Day 1, D1 D8 q4w (Arm B), gMean, N=3, read-out: Cmax): 1370 nM; Vd/F (20 mg, Day 1, D1 D8 q4w (Arm B), gMean, N=3, read-out: Vz/F): 27.7 L; half-life (20 mg, Day 1, D1 D8 q4w (Arm B), gMean, N=3, read-out: t1/2 (converted)): 50.5 h; Tmax (20 mg, Day 1, D1 D8 q4w (Arm B), median, N=3, read-out: tmax): 4 h; AUC(0-inf) (20 mg, Day 8, D1 D8 q4w (Arm B), gMean, N=3, read-out: AUC0-∞): 61.1 µM·h; Cmax (20 mg, Day 8, D1 D8 q4w (Arm B), gMean, N=3, read-out: Cmax): 1220 nM; Vd/F (20 mg, Day 8, D1 D8 q4w (Arm B), gMean, N=3, read-out: Vz/F): 30.5 L; half-life (20 mg, Day 8, D1 D8 q4w (Arm B), gMean, N=3, read-out: t1/2 (converted)): 38.2 h; Tmax (20 mg, Day 8, D1 D8 q4w (Arm B), median, N=3, read-out: tmax): 3 h; AUC(0-inf) (30 mg, Arm A D1 q3w, 30 mg, N=3, read-out: AUC0-∞, gMean (gCV [%])): 113 µM·h; Cmax (30 mg, Arm A D1 q3w, 30 mg, N=3, read-out: Cmax (gMean)): 2890 nM; Vd/F (30 mg, Arm A D1 q3w, 30 mg, N=3, read-out: Vz/F, gMean (gCV [%])): 23.6 L; Tmax (30 mg, Arm A D1 q3w, 30 mg, N=3, read-out: tmax (median)): 4 h; AUC(0-inf) (30 mg, Day 1, D1 D8 q4w (Arm B), gMean, N=4, read-out: AUC0-∞): 79.9 µM·h; Cmax (30 mg, Day 1, D1 D8 q4w (Arm B), gMean, N=4, read-out: Cmax): 1440 nM; Vd/F (30 mg, Day 1, D1 D8 q4w (Arm B), gMean, N=4, read-out: Vz/F): 33.1 L; half-life (30 mg, Day 1, D1 D8 q4w (Arm B), gMean, N=4, read-out: t1/2 (converted)): 36.2 h; Tmax (30 mg, Day 1, D1 D8 q4w (Arm B), median, N=4, read-out: tmax): 4.5 h; AUC(0-inf) (30 mg, Day 8, D1 D8 q4w (Arm B), gMean, N=3, read-out: AUC0-∞): 64.8 µM·h; Cmax (30 mg, Day 8, D1 D8 q4w (Arm B), gMean, N=3, read-out: Cmax): 1330 nM; Vd/F (30 mg, Day 8, D1 D8 q4w (Arm B), gMean, N=3, read-out: Vz/F): 44.6 L; half-life (30 mg, Day 8, D1 D8 q4w (Arm B), gMean, N=3, read-out: t1/2 (converted)): 39.5 h; Tmax (30 mg, Day 8, D1 D8 q4w (Arm B), median, N=3, read-out: tmax): 4 h; AUC(0-inf) (45 mg, Arm A D1 q3w, 45 mg, N=6, read-out: AUC0-∞, gMean (gCV [%])): 137 µM·h; Cmax (45 mg, Arm A D1 q3w, 45 mg, N=6, read-out: Cmax (gMean)): 2710 nM; Vd/F (45 mg, Arm A D1 q3w, 45 mg, N=6, read-out: Vz/F, gMean (gCV [%])): 35.1 L; half-life (45 mg, Arm A D1 q3w, 45 mg, N=6, read-out: t1/2 (gMean) (converted)): 43.7 h; Tmax (45 mg, Arm A D1 q3w, 45 mg, N=6, read-out: tmax (median)): 4 h; AUC(0-inf) (45 mg, Day 1, D1 D8 q4w (Arm B), gMean, N=2, read-out: AUC0-∞): 96.9 µM·h; Cmax (45 mg, Day 1, D1 D8 q4w (Arm B), gMean, N=2, read-out: Cmax): 2330 nM; Vd/F (45 mg, Day 1, D1 D8 q4w (Arm B), gMean, N=2, read-out: Vz/F): 34 L; half-life (45 mg, Day 1, D1 D8 q4w (Arm B), gMean, N=2, read-out: t1/2 (converted)): 30 h; Tmax (45 mg, Day 1, D1 D8 q4w (Arm B), median, N=2, read-out: tmax): 4 h; AUC(0-inf) (50 mg, Arm A D1 q3w, 50 mg, N=4, read-out: AUC0-∞, gMean (gCV [%])): 314 µM·h; Cmax (50 mg, Arm A D1 q3w, 50 mg, N=4, read-out: Cmax (gMean)): 3740 nM; Vd/F (50 mg, Arm A D1 q3w, 50 mg, N=4, read-out: Vz/F, gMean (gCV [%])): 23.7 L; half-life (50 mg, Arm A D1 q3w, 50 mg, N=4, read-out: t1/2 (gMean) (converted)): 60.9 h; Tmax (50 mg, Arm A D1 q3w, 50 mg, N=4, read-out: tmax (median)): 5.5 h; AUC(0-inf) (60 mg, Arm A D1 q3w, 60 mg, N=6, read-out: AUC0-∞, gMean (gCV [%])): 163 µM·h; Vd/F (60 mg, Arm A D1 q3w, 60 mg, N=6, read-out: Vz/F, gMean (gCV [%])): 31.4 L; half-life (60 mg, Arm A D1 q3w, 60 mg, N=6, read-out: t1/2 (gMean) (converted)): 34.9 h; Cmax (60 mg, Arm A D1 q3w, 60 mg, N=7, read-out: Cmax (gMean)): 3270 nM; Tmax (60 mg, Arm A D1 q3w, 60 mg, N=7, read-out: tmax (median)): 5 h; AUC(0-inf) (60 mg, Day 1, D1 D8 q4w (Arm B), gMean, N=2, read-out: AUC0-∞): 87.7 µM·h; Cmax (60 mg, Day 1, D1 D8 q4w (Arm B), gMean, N=2, read-out: Cmax): 1960 nM; Vd/F (60 mg, Day 1, D1 D8 q4w (Arm B), gMean, N=2, read-out: Vz/F): 57 L; half-life (60 mg, Day 1, D1 D8 q4w (Arm B), gMean, N=2, read-out: t1/2 (converted)): 34.2 h; Tmax (60 mg, Day 1, D1 D8 q4w (Arm B), median, N=2, read-out: tmax): 6 h; Cmax (60 mg, Day 8, D1 D8 q4w (Arm B), gMean, N=2, read-out: Cmax): 1890 nM; Tmax (60 mg, Day 8, D1 D8 q4w (Arm B), median, N=2, read-out: tmax): 16 h; AUC(0-inf) (80 mg, Arm A D1 q3w, 80 mg, N=2, read-out: AUC0-∞, gMean (gCV [%])): 205 µM·h; Cmax (80 mg, Arm A D1 q3w, 80 mg, N=2, read-out: Cmax (gMean)): 3930 nM; Vd/F (80 mg, Arm A D1 q3w, 80 mg, N=2, read-out: Vz/F, gMean (gCV [%])): 26.5 L; half-life (80 mg, Arm A D1 q3w, 80 mg, N=2, read-out: t1/2 (gMean) (converted)): 27.9 h; Tmax (80 mg, Arm A D1 q3w, 80 mg, N=2, read-out: tmax (median)): 3.5 h; Tmax (after tablet intake, across dose groups, read-out: tmax): 4 to 6 h; half-life (range across dose groups, read-out: half-life): 27.9 to 60.9 h; half-life (Arm A D1 q3w, 30 mg, N=3, read-out: t1/2 (gMean) (converted)): 36.4 h; clearance (humans, preliminary PK data): low clearance; dose levels at which exposure (Cmax and AUC0-inf) is above predicted therapeutic exposures (humans, preliminary PK data): ≥ 15 mg; volume of distribution (humans, preliminary PK data): very low volume of distribution
